Values of other authors, collected in patent publication US20140010802A1, “SYSTEMS AND METHODS FOR DIAGNOSING A PREDISPOSITION TO DEVELOP CANCER” (University of Hawaii, Office of Technology Transfer and …, priority 2011, published 2014).

Test system: MM patients
Details: phase 1 clinical trial, 3 MM patients

## Cc1c(CN2CCN(C(=O)[C@H](C)O)CC2)sc2c(N3CCOCC3)nc(-c3cnc(N)nc3)nc12 [GDC0980]
  anti-tumor effects in patients: anti-tumor effects
